Experimental data as given in a melting point compilation (Tetko et al.; mined from patent text by program, amines drawn as free bases though some values may be those of a salt).

Structure (SMILES) | melting point [°C]
C=C1c2c(C)c(OCc3ccccc3)c(C)c(C)c2OC1(C)C | 55 to 57
CC(C)(C)c1ccc(C(=O)NNS(=O)(=O)c2ccccc2)cc1 | 197 to 199
O=C(Nc1ccccc1)O[C@H]1COC(c2cc3ccccc3[nH]2)=N[C@@H]1c1ccccc1 (racemic) | 166
Cc1cn(N=Cc2cc(C(C)(C)C)c(O)c(C(C)(C)C)c2)cn1 | 150 to 151
CCCCCCCCCCCCCCCC1CCCC(=O)C1 (stereo unspecified) | 41
O=[N+]([O-])c1ccc(OC2SCC(O)C(O)C2O)cc1 (stereo unspecified) | 130 to 132
COc1ccc2c(c1)CN(C(=O)CCCCCN1CCN(c3cccc(C(F)(F)F)c3)CC1)C2 | 92
Nc1nc(CN2CCC(c3c[nH]c4ccccc34)CC2)cs1 | 195 to 198
Cc1sc2c(c1C)C(c1ccc(Cl)cc1)=N[C@@H](CC(=O)NCCO)c1nnc(C)n1-2 | 254 to 255
CC1(C)CCC(C)(C)c2cc3c(cc21)C(C)(C)CCC3(C)C | 218 to 221
CS(=O)c1ccc(C(=O)CCCCC#N)cc1 (stereo unspecified) | 89.5 to 91.5
NS(=O)(=O)c1cc(Cl)ccc1S | 142 to 144
O=c1c2cccnc2n(-c2cccc([N+](=O)[O-])c2)c(=O)n1Cc1ccncc1 | 207 to 209
CC(C)C[C@H](NC(=O)OCc1ccccc1)C(=O)N[C@@H](Cc1ccccc1)C(=O)CSCCCl | 77 to 80
O=C(Nc1nc(CN2CCC(c3c[nH]c4ccccc34)CC2)cs1)C1CC1 | 120 to 132
O=C(O)CCCCCCCCCCOc1cc(OCCCCCCCCCCC(=O)O)cc(C(=O)N(CC(=O)O)CC(=O)O)c1 | 134 to 140
CN(C)NC(=NS(=O)(=O)c1ccc(Cl)cc1)N1CC(c2ccccc2)C(c2ccc(Cl)cc2)=N1 (single isomer, unassigned; (-)) | 218 to 224
Cc1cc(SC2=C(O)CC(C3CCCC3)(C3CCCC3)OC2=O)c(C(C)(C)C)cc1OS(=O)(=O)c1cn(C)cn1 | 143 to 145
CC12CCC3c4ccc(O)cc4C(=O)C(Sc4ccc(O)cc4)C3C1CCC2O (stereo unspecified) | 120 to 124
O=C(CNC(=O)CN1CCCC1=O)NCC(=O)Nc1ccncc1 | 250 to 253
COC(COc1cccc2c(OCC(OC)OC)cccc12)OC | 117

Structure (SMILES) | melting point [°C]
CS(=O)(=O)c1ccc(-c2sc(-c3ccccc3Cl)nc2-c2cccc(F)c2)cc1 | 134 to 135
CC1=C(C(=O)CCl)C2(C)CCC3C(CC=C4CC(O)CCC43C)C2C1 (stereo unspecified) | 170 to 172
CCCCC(CC)COc1ccc(-c2nc(-c3ccc(OCC(CC)CCCC)cc3O)nc(-c3cccn3Cc3ccccc3)n2)c(O)c1 (stereo unspecified) | 66 to 68
N#CCCN1CCC(c2noc3cc(F)ccc23)CC1 | 100 to 101
NN=C1CCc2ccccc21 | 84 to 86
O=C(NC(Cc1ccccc1)C1CC(Cc2ccccc2)=NO1)c1ccccc1 (stereo unspecified) | 141 to 142
O=C(NC(=O)N1CCOCC1)c1cccc(-c2noc(-c3ccccc3F)n2)c1 | 190 to 194
O=C(O)c1ccccc1SC1CCOC1=O (stereo unspecified) | 180 to 182
OC1C(COCC(F)(F)F)OC(n2cnc3c(Nc4ccc(F)cc4)ncnc32)C1O (stereo unspecified) | 214 to 215
O=C(OCC1OC(n2cnc3c(NOCc4ccccc4)nc(Cl)nc32)C(OC(=O)c2ccccc2)C1OC(=O)c1ccccc1)c1ccccc1 (stereo unspecified) | 115 to 119
CSc1cccc(C2CC(=O)C=C(O)C2)c1 (stereo unspecified) | 141
CCc1cc(N(Cc2ccc(-c3ccccc3-c3nnn(C(c4ccccc4)(c4ccccc4)c4ccccc4)n3)cc2)C(C)=O)cc(CC)n1 | 98 to 102
CN(C)c1ccc(C(C)(C(=O)O)c2ccc(N(C)C)cc2)cc1 | 152 to 154
Cc1ccc(N2C(=O)CN3C(=O)CC[C@@H]32)cc1 | 149 to 150
CC(=O)Nc1cc(C(=O)O)ccc1C(F)(F)F | 195 to 197
CC1(Cn2nc(-c3ccccc3)oc2=O)Cn2cc([N+](=O)[O-])nc2O1 (stereo unspecified) | 225 to 227
CN1C(=O)CC[C@]2(C)c3ccc(-c4c(F)cccc4F)cc3CC[C@@H]12 | 125 to 130
O=S(=O)(c1cccs1)N(CC(F)(F)F)c1cccc2cc(-c3nccs3)[nH]c12 | 194 to 195
Cn1c(C(F)(F)F)ccc(-c2c(F)cc(Cl)c3oc(C(Br)Br)cc23)c1=O | 107 to 109
C=CCCC(C#N)(C#N)Cc1ccc(OC(F)(F)Br)cc1 | 50.2

Next, values leading:

melting point [°C] | Structure (SMILES)
98 to 99 | C=CCOC(=O)C1=C(C)NC(C)=C(C(=O)OCC=C)C1c1ccccc1Cl
210 to 215 | Cc1nc(NCC(C)C)sc1C(=O)c1ccc(N)c([N+](=O)[O-])c1
308 to 309 | Nc1c(F)c(N2CCC(n3ccnn3)C2)c(F)c2c1c(=O)c(C(=O)O)cn2-c1ccc(F)cc1F (stereo unspecified)
159 | CCCCCCCNC(=O)N(C)c1ccc(C)c(-c2ccc(C=CC(=O)O)cc2)c1
216 to 217 | N#Cc1cc(F)ccc1Oc1ccc(-c2cn(C3CCOCC3)c3ncnc(N)c23)cc1
69 to 72 | COCCCNc1cc(C)ccc1N
110 | CCCN(CCCCc1c[nH]c2ccc(F)cc12)C1COc2c(F)ccc(C(=O)NC)c2C1 (stereo unspecified)
127 to 128 | CCN(CC)C1=C2N=c3cc(Cl)ccc3=C2Oc2ccccc2N1C
174 to 176 | CCOc1ccc(-c2ccc3c(c2)C=C(C(=O)Nc2ccc(CN(C)C4CCOCC4)cc2)CCO3)cc1
211 to 214 | O=C(O)COc1ccc(OCC(=O)O)c(NC(=O)c2ccc(OCCCCc3ccccc3)cc2)c1
187 to 189 | CC(C)(C)c1ccc(-c2[nH]c3nccnc3c2CCCO)cc1
106 to 108 | C=C(Cn1ccnc1)c1cc(F)ccc1OCc1c(Cl)cccc1Cl
134 to 137 | CCCc1c(COc2ccc(C(=O)CCCCCCc3nnn[nH]3)cc2)ccc(C(C)=O)c1O
137 to 139 | CCCc1cc(C(=O)NC2=NC(=O)CN2C)ccc1OC(C(=O)NS(=O)(=O)c1ccc(C(C)C)cc1)c1ccc2c(c1)OCO2 (stereo unspecified)
286 to 288 | O=C(Nc1ccc2[nH]c(=O)[nH]c2c1)C(=O)N1CCC(Oc2ccc(Cl)cc2)CC1
120 to 130 | COCn1c(-c2nc3c(OC)ccc(N4CCOCC4)c3s2)nc2ccc(C3CCNC3)nc21 (stereo unspecified)
225 to 226 | Nc1ccc(S(=O)(=O)c2cc(Cl)nc(N3CCCC3)c2)cc1
228 | COc1ccc(Cl)cc1C(=O)NC1Cc2cc(S(N)(=O)=O)c(OC)cc2OC1(C)C (stereo unspecified)
120 to 123 | COc1ccc2ncc(N)c(Nc3ccccc3Cl)c2c1
228 | COC(=O)c1nc2cc(F)ccc2c(O)c1C(=O)OC
298 to 301 | COc1ccc2ccc3nc(C(=O)Nc4nnn[nH]4)cn3c2c1
117 to 122 | CCOC(=O)c1cnc(O)nc1NCc1ccc(OC)c(Cl)c1
75 to 76 | CCCCCCCC(=O)c1ccc(CCC(CC)(COC(C)=O)NC(C)=O)cc1 (stereo unspecified)
103 to 107 | CCCc1c(O)cccc1Oc1ccccc1C#N
183 to 184 | Cc1c(NC(=O)CC(C)(C)C)c2c(c3c1C(c1ccc(C(C)C)cc1)CO3)CCCC2 (stereo unspecified)
